# Assay results as given in US11761894B2, “Silicon-rhodamine fluorescent probe containing hydrophobic group and use thereof” (AJOU UNIVERSITY INDUSTRY—ACADEMIC COOPERATION FOUNDATION, priority 2019, dated 2023).
# Entries after “also recorded” stand apart in the source; their conditions may differ.
# Assays:
# [1] = tested on: Hep3B cells; assay: Co-staining with Hoechst and Lysotracker Red in Hep3B cells; assay type: cell-based, human; conditions: 1 μM, 1 h
# Description: Liver cancer Hep3B cells were incubated with Hoechst (0.01 μg/ml), Lysotracker red (1 μM), and SiR-Mito 8 (1 μM) for 1 h. After washing 3 times with fresh media, fluorescence live cell images were acquired with a LEICA DMi8 microscope (Left). […] Scale bar: 50 μm.
# To verify the mitochondrial specificity of the SiR-Mito 8 probe, Hep3B human cancer cells were co-stained with a nuclear and a lysosomal tracer, in addition to SiR-Mito 8.
# To this end, 6.0×10^4 human HCC cell line Hep3B cells were seeded on confocal dish and incubated for 2 days. After 2 days, Hep3B cells were incubated with Hoechst, 1 μM Lysotracker Red, and 1 μM SiR-Mito 8 contained media for 1 h. After the incubation, Hep3B cells were washed with cell culture media for three times and observed with inverted fluorescence microscope (DMi8, LEICA).
# [2] = tested on: HeLa, and Hep3B cells; assay: High-resolution live cell imaging of SiR-Mito 8 with MitoTracker green; assay type: cell-based, human; conditions: 1 μM, 60 min
# Description: (a) HeLa and Hep3B cells were incubated with MitoTracker Green (0.5 μM), and SiR-Mito 8 (1 μM) for 1 h. After washing 3 times with fresh media, fluorescent live cell images were acquired with LEICA DMi8 microscope. (MitoTracker green: FITC channel, SiR-Mito 8: Cy 5 channel, Scale bar: 15 μm); (b) Chang liver cells expressing mitochondrial YFP were incubated with SiR-Mito 8 (1 μM) for 1 h. After washing 3 times with fresh media, fluorescent live cell images were acquired with LEICA DMi8 microscope. (Mitochondrial-YFP: Rhodamine channel, Scale bar: 15 μm).
# Mitochondrial specificity in live cells labeled with SiR-Mito 8 and MitoTracker green was examined by high-resolution imaging.
# To this end, HeLa, and Hep3B cells were cultured in Dulbecco's modified eagle media (DMEM, GIBCO) containing 10% fetal bovine serum (FBS, GIBCO) and 1% penicillin (GIBCO) at 37° C. in a humidified incubator with 5% CO2. For the fluorescence microscope imaging, cells were harvested using TrypLE™ Express (GIBCO) and resuspended in fresh culture medium. Harvested cells were seeded on a confocal dish with a density of 4.0×10^4 cells/well. After 24 h incubation, cells were incubated with SiR-Mito 8 (1 μM) and Mitotracker green (0.5 uM) for 60 min. Cells were washed three times with 1×PBS and observed with inverted fluorescence microscope (DMi8, LEICA).
# [3] = tested on: mitochondria in HeLa cells; assay: Colocalization test of SiR-Mito probes with MitoTracker green in HeLa cells; assay type: cell-based, human; conditions: 1 μM probe, 1 h
# Description: HeLa cells were incubated with cell culture media containing 1 μM SiR-Mito probe, and 0.5 μM MitoTracker green. After 1 h, HeLa cells were washed three times with 1×PBS for and observed with a LEICA DMi8 fluorescent microscope. Each experiment was observed using 512-542 nm emitter for FITC channel (for MitoTracker Green), and 663-738 nm exciter, 545-625 nm emitter for Cy5 channel (for SiR-Mito probes). Scale bar: 50 μm.
# HeLa human cervical cancer cells were cultured in Dulbecco's modified eagle media (DMEM, GIBCO) containing 10% fetal bovine serum (FBS, GIBCO) and 1% penicillin (GIBCO) at 37° C. in a humidified incubator with 5% CO2. For the fluorescence microscope imaging, cells were harvested using TrypLE™ Express (GIBCO) and resuspended in fresh culture medium. Harvested cells with a density of 4.0×10^3 cells/well were seeded on a HeLa 96 black well plate (CORNING) and incubated for 24 h. Cells were incubated with SiR-Mito probes (1 μM) and MitoTracker Green (0.5 μM) for 60 min. After the incubation, cells were washed with 1×PBS for three times and observed with inverted fluorescence microscope (DMi8, LEICA). Each experiment was observed using a 325-375 nm exciter, 435-485 nm emitter for DAPI channel, 460-500 nm exciter, 512-542 nm emitter for FITC channel, 541-551 nm exciter, 565-605 nm emitter for Rhodamine channel, and 663-738 nm exciter, 545-625 nm emitter for Cy5 channel.
# To determine the effect of probe hydrophobicity on the efficiency of targeting to mitochondria, the Pearson coefficient for colocalization of SiR-Mito probes and MitoTracker green, a commercial fluorescent mitochondrial bioprobe, was measured (FIG. 1). For the colocalization test, human cervical cancer HeLa cells were seeded on 96-well plates and incubated for 1 h with 1 μM of each different SiR-Mito probe and 0.5 μM MitoTracker green, washed briefly with 1×PBS, and imaged with a LEICA DMi8 fluorescent microscope using the 40× objective.
# [4] = tested on: HeLa, Hep3B, HepG2 and Raw 264.7 cells; assay: Cytotoxicity test (mitochondrial respiration viability assay, CellTiter 96 Aqueous One); assay type: cell-based, human; mouse; conditions: up to the 24 hr time point, moderate dose (less than 1 μM)
# Description: HeLa, Hep3B, HepG2 and Raw 264.7 cells were incubated with SiR-Mito 8, concentration range from 0.25 μM to 10 μM, for 1, 4, 12, and 24 h. Viability of the cells was normalized by DMSO control.
# In order to use SiR-Mito 8 as a potential NIR fluorescent tracer for mitochondrial staining, cytotoxicity of the probes was evaluated. HeLa, Hep3B, HepG2 and Raw 264.7 cells were incubated with SiR-Mito 8 at various concentrations (from 0.25 to 10.0 μM) and cytotoxicity was measured by a mitochondrial respiration viability assay.
# Specifically, HeLa human cervical cancer cells, Hep3B and HepG2 human hepatocellular carcinoma cells, and Raw264.7 mouse macrophage cells were seeded into 96-well cell culture plates per well and allowed to adhere to the plates overnight. The cells were incubated with cell culture media containing each concentration of SiR-Mito 8 (0.25 μM to 10 μM) for 1, 4, 12 or 24 h. After incubation, CellTiter 96® Aqueous One Solution Cell Proliferation Assay (Promega) was added into each well. After 2 h, 490 nm absorption was measured with Cytation 3 microplate reader (BioTek). Cytotoxicity of SiR-Mito 8 was tested in triplicate in a single experiment, with each experiment being repeated at least three times.
substance,measurement,setting,value
"N-(10-(5-((cyclooctylmethyl) carbamoyl)-2-methylphenyl)-7-(dimethylamino)-5,5-dimethyldibenzo[b,e]silin-3(5H)-ylidene)-N-methylmethanaminium [SiR-Mito 8]",Mitochondrial specificity versus lysosome (Lysotracker Red co-staining),[1],high mitochondrial specificity; also recorded: did not localize to other organelle such as lysosome
same,Mitochondrial specificity in live cells (co-expression with MitoTracker green),[2],highly co-expressed
same,Mitochondria Targeting (Pearson coefficient for colocalization with MitoTracker green),[3]; 0.5 μM MitoTracker green,*** (*** 0.9 ≤ R)
same,Pearson coefficient for colocalization with MitoTracker green,[3]; 0.5 μM MitoTracker green,highest
same,Intracellular fluorescence (SiR channel),[3],strongest
same,Cytotoxicity,[4],no acute cytotoxicity
